{"source": "ChEMBL document CHEMBL3108728", "about": "“Anti-inflammatory activity of rhamnetin and a model of its binding to c-Jun NH2-terminal kinase 1 and p38 MAPK” (J Nat Prod, 2014)", "key": {"[1]": {"target": "Mitogen-activated protein kinase 8 (Mus musculus) (UniProt Q91Y86)", "sequence (Q91Y86 whole entry)": "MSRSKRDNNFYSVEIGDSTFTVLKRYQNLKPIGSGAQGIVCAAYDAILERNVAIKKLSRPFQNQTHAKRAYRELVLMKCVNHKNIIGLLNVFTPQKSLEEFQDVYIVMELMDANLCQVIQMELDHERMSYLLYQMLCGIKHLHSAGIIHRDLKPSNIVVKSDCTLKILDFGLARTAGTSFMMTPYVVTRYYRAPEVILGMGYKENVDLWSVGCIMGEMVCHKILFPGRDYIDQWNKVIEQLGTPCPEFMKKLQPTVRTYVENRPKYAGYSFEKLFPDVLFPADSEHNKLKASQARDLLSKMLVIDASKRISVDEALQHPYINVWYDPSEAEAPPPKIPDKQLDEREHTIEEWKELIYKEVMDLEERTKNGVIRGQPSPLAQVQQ", "test": "Inhibition of IFNgamma-induced JNK phosphorylation in mouse RAW264.7 cells at 20 uM by Western blotting analysis relative to untreated control", "type": "cell-based"}, "RAW264.7 [2]": {"tested_on": "RAW264.7", "test": "Antiinflammatory activity against mouse RAW264.7 cells assessed as inhibition of LPS-induced TNFalpha production at 20 uM after 24 hrs by ELISA", "type": "functional", "details": "RAW264.7, 24 h"}, "[3]": {"target": "T1, MAP kinase p38 (Mus musculus) (UniProt P47811+O08911+Q9WUI1+Q9Z1B7)", "test": "Inhibition of IFNgamma-induced p38 MAPK phosphorylation in mouse RAW264.7 cells at 20 uM by Western blotting analysis relative to untreated control", "type": "cell-based"}, "[4]": {"target": "T2, MAP kinase p38 (Homo sapiens) (UniProt O15264+Q15759+Q16539+P53778)", "test": "Binding affinity to human p38 MAPK expressed in Escherichia coli by spectrofluorometry"}, "[5]": {"target": "T2, MAP kinase p38 (Homo sapiens)", "test": "Binding affinity to human p38 MAPK expressed in Escherichia coli by circular dichroism method"}, "RAW264.7 [6]": {"tested_on": "RAW264.7", "test": "Antiinflammatory activity against mouse RAW264.7 cells assessed as reduction of LPS-induced mTNFalpha mRNA expression at 25 uM after 3 hrs by RT-PCR analysis relative to untreated control", "type": "functional, cell-based"}, "RAW264.7 [7]": {"tested_on": "RAW264.7", "test": "Antiinflammatory activity against mouse RAW264.7 cells assessed as reduction of LPS-induced mMIP-2 mRNA expression at 25 uM after 3 hrs by RT-PCR analysis relative to untreated control", "type": "functional, cell-based"}, "RAW264.7 [8]": {"tested_on": "RAW264.7", "test": "Antiinflammatory activity against mouse RAW264.7 cells assessed as inhibition of LPS-induced TNFalpha production at 10 uM after 24 hrs by ELISA", "type": "functional", "details": "RAW264.7, 24 h"}, "[9]": {"test": "Cytotoxicity against mouse RAW264.7 cells assessed as cell survival at 100 uM after 24 hrs by MTT assay relative to untreated control", "type": "cell-based", "details": "read-out: Survival"}, "[10]": {"target": "Mitogen-activated protein kinase 3 (Mus musculus) (UniProt Q63844)", "sequence (Q63844 whole entry)": "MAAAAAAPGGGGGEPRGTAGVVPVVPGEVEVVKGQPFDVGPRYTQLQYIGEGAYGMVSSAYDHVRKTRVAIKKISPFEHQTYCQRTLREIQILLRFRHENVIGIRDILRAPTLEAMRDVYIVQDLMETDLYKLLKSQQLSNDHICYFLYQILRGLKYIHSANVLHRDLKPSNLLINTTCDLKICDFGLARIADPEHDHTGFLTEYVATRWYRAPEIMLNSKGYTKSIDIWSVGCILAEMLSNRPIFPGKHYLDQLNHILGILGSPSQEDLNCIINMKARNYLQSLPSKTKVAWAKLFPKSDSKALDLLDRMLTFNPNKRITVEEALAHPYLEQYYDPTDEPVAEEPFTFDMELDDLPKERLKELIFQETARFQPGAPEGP", "test": "Inhibition of LPS-induced ERK phosphorylation in mouse RAW264.7 cells at 20 uM by Western blotting analysis", "type": "cell-based"}, "RAW264.7 [11]": {"tested_on": "RAW264.7", "test": "Antiinflammatory activity against mouse RAW264.7 cells assessed as reduction of LPS-induced NO production at 10 uM after 24 hrs", "type": "functional", "design": "scale not given: the % may be the effect or the level left"}, "RAW264.7 [12]": {"tested_on": "RAW264.7", "test": "Antiinflammatory activity against mouse RAW264.7 cells assessed as inhibition of LPS-induced COX2 protein expression at 20 uM by Western blotting analysis", "type": "functional"}, "RAW264.7 [13]": {"tested_on": "RAW264.7", "test": "Cytotoxicity against mouse RAW264.7 cells up to 12.5 uM after 24 hrs by MTT assay relative to untreated control", "type": "cell-based", "details": "raw264.7, 24 h"}, "[14]": {"target": "Mitogen-activated protein kinase 8 (Homo sapiens) (UniProt P45983)", "sequence (P45983 whole entry)": "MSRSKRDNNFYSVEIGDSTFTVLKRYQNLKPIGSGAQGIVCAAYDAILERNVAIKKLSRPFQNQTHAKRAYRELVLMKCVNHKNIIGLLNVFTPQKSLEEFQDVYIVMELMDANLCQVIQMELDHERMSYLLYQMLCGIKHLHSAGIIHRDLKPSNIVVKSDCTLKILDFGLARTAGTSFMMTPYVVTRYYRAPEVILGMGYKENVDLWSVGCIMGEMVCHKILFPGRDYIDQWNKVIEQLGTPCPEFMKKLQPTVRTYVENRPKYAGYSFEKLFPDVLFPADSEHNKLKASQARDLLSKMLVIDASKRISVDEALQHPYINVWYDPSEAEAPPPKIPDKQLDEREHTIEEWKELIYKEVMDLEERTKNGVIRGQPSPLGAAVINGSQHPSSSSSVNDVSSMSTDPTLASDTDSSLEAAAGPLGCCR", "test": "Binding affinity to human C-terminal His6-tagged JNK1alpha1 (1 to 364) expressed in Escherichia coli by spectrofluorometry"}, "RAW264.7 [15]": {"tested_on": "RAW264.7", "test": "Antiinflammatory activity against mouse RAW264.7 cells assessed as reduction of LPS-induced NO production at 20 uM after 24 hrs", "type": "functional", "design": "scale not given: the % may be the effect or the level left"}, "[16]": {"target": "T3, Monocyte differentiation antigen CD14 (Mus musculus) (UniProt P10810)", "T3 sequence (whole entry)": "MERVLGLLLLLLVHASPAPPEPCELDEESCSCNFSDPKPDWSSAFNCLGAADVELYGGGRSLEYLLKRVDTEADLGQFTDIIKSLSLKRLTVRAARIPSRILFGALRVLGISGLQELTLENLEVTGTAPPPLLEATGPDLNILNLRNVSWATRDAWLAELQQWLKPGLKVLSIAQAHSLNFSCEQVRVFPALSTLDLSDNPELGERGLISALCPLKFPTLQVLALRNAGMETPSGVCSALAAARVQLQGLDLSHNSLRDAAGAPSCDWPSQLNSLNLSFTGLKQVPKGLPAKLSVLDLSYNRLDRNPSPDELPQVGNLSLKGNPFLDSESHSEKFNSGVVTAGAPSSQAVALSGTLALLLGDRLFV", "test": "Inhibition of CD14 in mouse RAW264.7 cells at 20 uM by Western blotting analysis", "type": "cell-based"}, "[17]": {"target": "T1, MAP kinase p38 (Mus musculus)", "test": "Inhibition of LPS-induced p38 MAPK phosphorylation in mouse RAW264.7 cells at 20 uM by Western blotting analysis", "type": "cell-based"}, "RAW264.7 [18]": {"tested_on": "RAW264.7", "test": "Antiinflammatory activity against mouse RAW264.7 cells assessed as reduction of LPS-induced mMIP-1 mRNA expression at 25 uM after 3 hrs by RT-PCR analysis relative to untreated control", "type": "functional", "design": "scale not given: the % may be the effect or the level left"}, "[19]": {"target": "Mitogen-activated protein kinase 8 (Homo sapiens) (UniProt P45983)", "test": "Binding affinity to human C-terminal His6-tagged JNK1alpha1 (1 to 364) expressed in Escherichia coli by circular dichroism method"}, "RAW264.7 [20]": {"tested_on": "RAW264.7", "test": "Antiinflammatory activity against mouse RAW264.7 cells assessed as reduction of LPS-induced mMIP-2 level at 10 uM after 24 hrs by ELISA relative to untreated control", "type": "functional", "design": "scale not given: the % may be the effect or the level left"}, "HaCaT": {"tested_on": "HaCaT", "test": "Cytotoxicity against human HaCaT cells at 100 uM after 24 hrs by MTT assay relative to untreated control", "type": "cell-based"}, "RAW264.7 [21]": {"tested_on": "RAW264.7", "test": "Antiinflammatory activity against mouse RAW264.7 cells assessed as reduction of LPS-induced mMIP-2 level at 20 uM after 24 hrs by ELISA relative to untreated control", "type": "functional", "design": "scale not given: the % may be the effect or the level left"}, "RAW264.7 [22]": {"tested_on": "RAW264.7", "test": "Antiinflammatory activity against mouse RAW264.7 cells assessed as reduction of IFNgamma-induced NO production at 10 uM after 24 hrs", "type": "functional", "design": "scale not given: the % may be the effect or the level left"}, "[23]": {"target": "Mitogen-activated protein kinase 3 (Mus musculus) (UniProt Q63844)", "test": "Inhibition of IFNgamma-induced ERK phosphorylation in mouse RAW264.7 cells at 20 uM by Western blotting analysis relative to untreated control", "type": "cell-based"}, "RAW264.7 [24]": {"tested_on": "RAW264.7", "test": "Antiinflammatory activity against mouse RAW264.7 cells assessed as reduction of IFNgamma-induced NO production at 20 uM after 24 hrs", "type": "functional", "design": "scale not given: the % may be the effect or the level left"}, "[25]": {"target": "Mitogen-activated protein kinase 8 (Mus musculus) (UniProt Q91Y86)", "test": "Inhibition of LPS-induced JNK phosphorylation in mouse RAW264.7 cells at 20 uM by Western blotting analysis", "type": "cell-based"}}, "note": "Activity calls are given as the source filed them. The rule behind the calls is not given here."}
{"smiles": "COc1cc(O)c2c(=O)c(O)c(-c3ccc(O)c(O)c3)oc2c1", "note": "[RHAMNETIN]", "values": [{"measurement": "inhibition", "setting": "[1]", "result": 92, "unit": "%"}, {"measurement": "inhibition at 20 µM", "setting": "RAW264.7 [2]", "result": 63, "unit": "%"}, {"measurement": "inhibition", "setting": "[3]", "result": 58, "unit": "%"}, {"measurement": "K", "setting": "[4]", "result": 2.31, "unit": "×10⁷ /M"}, {"measurement": "Activity", "setting": "[5]", "result": "Active"}, {"measurement": "Activity", "setting": "RAW264.7 [6]", "result": "Active"}, {"measurement": "Activity", "setting": "RAW264.7 [7]", "result": "Active"}, {"measurement": "inhibition at 10 µM", "setting": "RAW264.7 [8]", "result": 54, "unit": "%"}, {"measurement": "viability at 24 h, 100 µM", "setting": "[9]", "result": "> 55", "unit": "%"}, {"measurement": "inhibition", "setting": "[10]", "result": 27, "unit": "%"}, {"measurement": "Activity", "setting": "RAW264.7 [11]", "result": 62, "unit": "%"}, {"measurement": "inhibition at 20 µM", "setting": "RAW264.7 [12]", "result": 76, "unit": "%"}, {"measurement": "Activity", "setting": "RAW264.7 [13]", "result": "Non-toxic"}, {"measurement": "K", "setting": "[14]", "result": 9.7, "unit": "×10⁸ /M"}, {"measurement": "Activity", "setting": "RAW264.7 [15]", "result": 74, "unit": "%"}, {"measurement": "inhibition", "setting": "[16]", "result": "inactive"}, {"measurement": "inhibition", "setting": "[17]", "result": 51, "unit": "%"}, {"measurement": "Activity", "setting": "RAW264.7 [18]", "result": 96.2, "unit": "%"}, {"measurement": "Activity", "setting": "[19]", "result": "Active"}, {"measurement": "Activity", "setting": "RAW264.7 [20]", "result": 42, "unit": "%"}, {"measurement": "Activity", "setting": "HaCaT", "result": "Non-toxic"}, {"measurement": "Activity", "setting": "RAW264.7 [21]", "result": 77, "unit": "%"}, {"measurement": "Activity", "setting": "RAW264.7 [22]", "result": 73.2, "unit": "%"}, {"measurement": "inhibition", "setting": "[23]", "result": 38, "unit": "%"}, {"measurement": "Activity", "setting": "RAW264.7 [24]", "result": 91.5, "unit": "%"}, {"measurement": "inhibition", "setting": "[25]", "result": 64, "unit": "%"}]}
